According to patent US10633338B2, “Binding Function 3 (BF3) site compounds as therapeutics and methods for their use” (THE UNIVERSITY OF BRITISH COLUMBIA, priority 2014, dated 2020):
Where two headings read alike, the source gives them in different places.

Columns and labels:
PSA = test: Prostate Surface Antigen (PSA) assay, PSA excreted into the media; type: cell-based, human; details: same plates as eGFP assay
Protocol: The evaluation of PSA excreted into the media was performed in parallel to the eGFP assay using the same plates (see above description). After the cells were incubated for 3 days 150 μl of the media was taken from each well, and added to 150 μl of PBS.

androgen receptor (AR) = target: T1, androgen receptor (AR) (Homo sapiens, UniProt P10275, T878A); test: eGFP cellular AR transcription assay; type: cell-based
T1 construct: stably transfected eGFP-expressing LNCaP human prostate cancer cells (LN-ARR2PB-eGFP) containing an androgen responsive probasin-derived promoter; endogenous in cells; host or cells: LNCaP (LN-ARR2PB-eGFP)
T1 sequence (P10275 1-920 T878A): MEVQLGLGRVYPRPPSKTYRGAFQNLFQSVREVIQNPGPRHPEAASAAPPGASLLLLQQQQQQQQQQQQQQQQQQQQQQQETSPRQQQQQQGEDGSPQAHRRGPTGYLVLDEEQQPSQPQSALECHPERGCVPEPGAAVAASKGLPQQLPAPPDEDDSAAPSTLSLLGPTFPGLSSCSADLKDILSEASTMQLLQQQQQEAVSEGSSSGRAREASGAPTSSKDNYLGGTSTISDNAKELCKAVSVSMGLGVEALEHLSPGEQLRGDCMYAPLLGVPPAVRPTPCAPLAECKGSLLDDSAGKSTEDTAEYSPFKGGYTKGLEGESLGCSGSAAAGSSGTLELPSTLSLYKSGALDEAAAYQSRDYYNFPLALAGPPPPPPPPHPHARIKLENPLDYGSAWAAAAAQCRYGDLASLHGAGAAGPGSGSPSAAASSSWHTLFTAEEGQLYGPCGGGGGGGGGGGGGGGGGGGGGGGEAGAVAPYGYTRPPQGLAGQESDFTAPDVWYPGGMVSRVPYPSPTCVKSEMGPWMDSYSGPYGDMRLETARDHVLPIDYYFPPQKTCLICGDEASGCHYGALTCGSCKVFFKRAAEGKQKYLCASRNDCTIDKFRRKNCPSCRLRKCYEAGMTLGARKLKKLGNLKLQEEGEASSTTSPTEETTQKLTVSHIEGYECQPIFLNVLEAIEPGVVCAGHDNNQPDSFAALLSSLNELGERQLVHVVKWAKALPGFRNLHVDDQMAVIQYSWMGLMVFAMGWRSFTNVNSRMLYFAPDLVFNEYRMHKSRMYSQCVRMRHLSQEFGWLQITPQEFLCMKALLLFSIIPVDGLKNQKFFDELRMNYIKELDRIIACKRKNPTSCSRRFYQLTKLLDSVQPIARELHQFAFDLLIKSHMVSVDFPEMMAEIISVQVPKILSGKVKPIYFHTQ
Procedure, shortened: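 AR transcriptional activity is read as eGFP expression from a probasin-derived androgen-responsive promoter. Compound titrated 0-100 μM in the presence of 0.1 nM R1881; 35,000 cells/well.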

[1] = PSA excreted into media, 3 days incubation
[2] = LN-ARR2PBeGFP LNCaP cells, 0.1 nM R1881, 3 days incubation
[3] = Homo sapiens, 72 h, PSA excreted into media, 3 days incubation, read-out: PSA IC50
[4] = Homo sapiens, 72 h, media after 3 days, read-out: IC50 (PSA)
[5] = LN-ARR2PBeGFP LNCaP cells, 0.1 nM R1881, 3 days incubation, read-out: eGFP IC50
[6] = LN-ARR2PB-eGFP LNCaP cells, 0.1 nM R1881, 3 days, 0-100 μM compound, read-out: IC50 (eGFP)
[7] = eGFP IC50, LN-ARR2PBeGFP LNCaP cells, 0.1 nM R1881, 3 days incubation
[8] = LN-ARR2PB-eGFP LNCaP cells, 0.1 nM R1881, 3 days, 0-100 μM compound
[9] = PSA excreted into media, 3 days incubation, read-out: PSA IC50

Row | SMILES | IC50 (PSA; [3]) | IC50 (androgen receptor (AR); [5]) | also measured
1 | Cc1c(F)ccc2c(-c3ccc4cccc(F)c4n3)c[nH]c12 [Compound 13635] |  |  | PSA IC50 (PSA; [1]): Inactive; eGFP IC50 (androgen receptor (AR); [2]): Inactive
2 | CNC(=O)c1cccc2nc(-c3c[nH]c4c(C)c(F)ccc34)ccc12 [Compound 13615] |  |  | PSA IC50 (PSA; [1]): Inactive; eGFP IC50 (androgen receptor (AR); [2]): Inactive
3 | Fc1ccc2c(-c3ccc4cccnc4c3)c[nH]c2c1 [Compound 13764] | 82 nM | 100 nM | IC50 (PSA; [4]): 82 nM
4 | Fc1c(Cl)ccc2c(-c3ccc4ccccc4n3)c[nH]c12 [Compound 13613] | 1740 nM | 11500 nM | 
5 | Cc1cccc2c(-c3nc4ccccc4s3)c[nH]c12 [13 760] |  |  | IC50 (PSA; media after 3 days, read-out: IC50 (PSA)): 520 nM; IC50 (androgen receptor (AR); [6]): 100 nM
6 | O=[N+]([O-])c1cccc2nc(-c3c[nH]c4ccccc34)ccc12 [Compound 13689] |  |  | PSA IC50 (PSA; [1]): Inactive; eGFP IC50 (androgen receptor (AR); [2]): Inactive
7 | Cc1c(F)ccc2c(-c3ccc4c(C#N)cccc4n3)c[nH]c12 [Compound 13609] |  |  | PSA IC50 (PSA; [1]): Inactive; eGFP IC50 (androgen receptor (AR); [2]): Inactive
8 | Cc1ccc2ccc(Cl)nc2c1 [Compound 13727] |  |  | PSA IC50 (PSA; [1]): Inactive; eGFP IC50 (androgen receptor (AR); [2]): Inactive
9 | Cc1cc(Cl)cc2c(-c3ccc4ccccc4n3)c[nH]c12 [Compound 13626] | 1650 nM | 2700 nM | 
10 | C[C@@H]1Cc2ccccc2N1c1nc2ccccc2o1 [Compound 13245] | 1690 nM | 1700 nM | 
11 | Cc1c(F)ccc2c(-c3ccc4cccc(Cl)c4n3)c[nH]c12 [Compound 13665] | 210 nM | 270 nM | 
12 | Cc1cccc2c(-c3ccc4c(C#N)cccc4n3)c[nH]c12 [Compound 13598] |  |  | PSA IC50 (PSA; [1]): Inactive; eGFP IC50 (androgen receptor (AR); [2]): Inactive
13 | c1ccc2nc(-c3n[nH]c4ccccc34)ccc2c1 [Compound 13579] | 43 nM |  | IC50 (androgen receptor (AR); [7]): 101 nM
14 | NC(=O)c1cccc2nc(-c3c[nH]c4c(F)cc(F)cc34)ccc12 [Compound 13747] |  |  | PSA IC50 (PSA; [1]): Inactive; eGFP IC50 (androgen receptor (AR); [2]): Inactive
15 | Fc1cc(Cl)c2[nH]cc(-c3ccc4c(F)cccc4n3)c2c1 [Compound 13668] |  |  | PSA IC50 (PSA; [1]): Inactive; eGFP IC50 (androgen receptor (AR); [2]): Inactive
16 | c1ccc2cc(-c3c[nH]c4ccncc34)ccc2c1 [13 685] |  |  | IC50 (PSA) (PSA; media after 3 days): IC50 (PSA) = Inactive; IC50 (eGFP) (androgen receptor (AR); [8]): IC50 (eGFP) = Inactive
17 | CCc1cccc2c(-c3ccc4ccccc4n3)c[nH]c12 [13 567] |  |  | IC50 (PSA; [4]): 230 nM; IC50 (androgen receptor (AR); [6]): 200 nM
18 | Cc1ccc(CN(C(=O)c2cc3ccccc3[nH]2)C(C)C)o1 [Compound 9128] | 3500 nM | 3200 nM | 
19 | Fc1cccc2nc(-c3c[nH]c4c(Br)cccc34)ccc12 [Compound 13714] |  |  | PSA IC50 (PSA; [1]): Inactive; eGFP IC50 (androgen receptor (AR); [2]): Inactive
20 | N#C/C(=C\c1ccc(F)cc1)c1c[nH]c2ccccc12 [Compound 13436] | 400 nM |  | IC50 (androgen receptor (AR); [7]): 600 nM
21 | CC1(C)c2ccccc2NC1c1c[nH]c2ccc(Cl)cc12 (centres unmarked) [Compound 13522] | 2190 nM | 3400 nM | 

Row | SMILES | IC50 (PSA; [3]) | IC50 (androgen receptor (AR); [5]) | also measured
22 | Cc1cccc2c(-c3ccc4c(Br)ccc(Br)c4n3)c[nH]c12 [13 679] |  |  | IC50 (PSA) (PSA; media after 3 days): IC50 (PSA) = Inactive; IC50 (eGFP) (androgen receptor (AR); [8]): IC50 (eGFP) = Inactive
23 | Cc1cccc2c(-c3ccc4ncsc4c3)c[nH]c12 [13 757] |  |  | IC50 (PSA) (PSA; media after 3 days): IC50 (PSA) = Inactive; IC50 (eGFP) (androgen receptor (AR); [8]): IC50 (eGFP) = Inactive
24 | Fc1cccc2c(-c3ccc4cccc(Cl)c4n3)c[nH]c12 [Compound 13698] | 41 nM | 41 nM | 
25 | CNC(=O)c1ccc(Cl)c2nc(-c3c[nH]c4c(F)c(F)c(F)cc34)ccc12 [Compound 13755] | 470 nM | 470 nM | 
26 | Fc1cccc2ccc(-c3c[nH]c4c(F)cccc34)nc12 [Compound 13697] | 29 nM | 29 nM | 
27 | Cc1ccc2nc(-n3ccc4cccc(C)c43)ccc2c1 [Compound 13647] |  |  | PSA IC50 (PSA; [1]): Inactive; eGFP IC50 (androgen receptor (AR); [2]): Inactive
28 | Cc1cccc2c(-c3ccc4ocnc4c3)c[nH]c12 [Compound 13759] | 270 nM | 300 nM | 
29 | CC1(C)C(c2c[nH]c3c(O)cccc23)=Nc2ccccc21 [13 541] |  |  | IC50 (PSA; [4]): 940 nM; IC50 (androgen receptor (AR); [6]): 500 nM
30 | Cc1cccc2ccn(-c3ccc4ccc(F)cc4n3)c12 [Compound 13648] |  |  | PSA IC50 (PSA; [1]): Inactive; eGFP IC50 (androgen receptor (AR); [2]): Inactive
31 | Brc1ccc(-c2c[nH]c3cccnc23)cc1 [13 737] |  |  | IC50 (PSA; [4]): 37 nM; IC50 (androgen receptor (AR); [6]): 80 nM
32 | Fc1cc2c(-c3ccc4cccc(Cl)c4n3)c[nH]c2c(F)c1F [Compound 13773] | 303 nM | 300 nM | 
33 | Cc1cccc2c(-c3ccc4c(Br)ccc(Br)c4n3)c[nH]c12 [Compound 13679] |  |  | PSA IC50 (PSA; [1]): Inactive; eGFP IC50 (androgen receptor (AR); [2]): Inactive
34 | Brc1ccc(-c2c[nH]c3ncccc23)cc1 [13 716] |  |  | IC50 (PSA; [4]): 58 nM; IC50 (androgen receptor (AR); [6]): 67 nM
35 | Cc1ccc2[nH]cc(C3Nc4ccccc4C3(C)C)c2c1 (centres unmarked) [13 535] |  |  | IC50 (PSA; [4]): 1870 nM; IC50 (androgen receptor (AR); [6]): 1500 nM
36 | Fc1cc2[nH]cc(-c3ccc4c(Cl)cccc4n3)c2cc1F [Compound 13707] |  |  | PSA IC50 (PSA; [1]): Inactive; eGFP IC50 (androgen receptor (AR); [2]): Inactive
37 | Cc1cccc2c(-c3cnc4cccnc4c3)c[nH]c12 [Compound 13662] |  |  | PSA IC50 (PSA; [1]): Inactive; eGFP IC50 (androgen receptor (AR); [2]): Inactive
38 | c1ccc(-c2ccc(-c3c[nH]c4ncccc34)cc2)cc1 [13 715] |  |  | IC50 (PSA; [4]): 350 nM; IC50 (androgen receptor (AR); [6]): 4080 nM
39 | Fc1ccc2ccc(Cl)nc2c1 [Compound 13728] |  |  | PSA IC50 (PSA; [1]): Inactive; eGFP IC50 (androgen receptor (AR); [2]): Inactive
40 | COC(=O)c1cccc2c(-c3ccc(Br)cc3)c[nH]c12 [Compound 13736] | 680 nM | 620 nM | 
41 | Fc1ccc2nc(-c3c[nH]c4c(F)c(F)c(F)cc34)ccc2c1 [Compound 13776] |  | 210 nM | IC50 (PSA; [9]): 190 nM
42 | CNC(=O)c1cccc2nc(-c3c[nH]c4c(F)cc(F)cc34)ccc12 [Compound 13696] | 42 nM | 42 nM | 

More lines, main results first:

Row | IC50 (PSA; [3]) | IC50 (androgen receptor (AR); [5]) | SMILES | also measured
43 | 4240 nM | 3210 nM | Cc1ccc2[nH]cc(C3Nc4ccccc4C34CCCCC4)c2c1 (centres unmarked) [Compound 13548] | 
44 | 2120 nM | 1600 nM | Cn1cc(-c2cc3ccccc3n2C)c2ccccc21 [Compound 13166] | 
45 | 740 nM | 950 nM | Cc1ccccc1CSc1c(C)[nH]c2ccccc12 [Compound 13222] | 
46 | 290 nM | 1130 nM | Brc1cccc2c(-c3cnc4ccccc4c3)c[nH]c12 [Compound 13653] | 
47 | 730 nM | 800 nM | N#C/C(=C\c1ccc(C(F)(F)F)cc1)c1c[nH]c2ccccc12 [Compound 13434] | 
48 | 7090 nM | 3100 nM | CC1(C)c2ccccc2N(Cc2ccc(O)cc2)C1c1c[nH]c2ccccc12 (centres unmarked) [Compound 13525] | 
49 | 670 nM | 770 nM | CN1c2ccccc2C[C@H]1c1c[nH]c2ccccc12 [Compound 13164-A] | 
50 | 2700 nM | 4800 nM | CC1(C)c2ccccc2NC1C1CN(CCO)c2ccccc21 (centres unmarked) [Compound 13508] | 
51 | 2520 nM | 2200 nM | COc1ccc2[nH]cc(C3Nc4ccccc4C3(C)C)c2c1 (centres unmarked) [Compound 13536] | 
52 | 600 nM | 180 nM | CC1(C)c2ccccc2NC1c1c[nH]c2ccccc12 (centres unmarked) [Compound 13506] | 
53 | 1250 nM | 800 nM | c1ccc2c(c1)NC(c1c[nH]c3ccccc13)C21CCCCC1 (centres unmarked) [Compound 13534] | 
54 | 1250 nM | 1900 nM | O=Nc1c(-c2c[nH]c3ccccc23)[nH]c2ccccc12 [Compound 13167] | 
55 | 290 nM | 290 nM | FC(F)(F)c1ccc(-c2c[nH]c3ccccc23)nc1 [Compound 13741] | 
56 |  | 700 nM | Cc1ccc(/N=N/c2c[nH]c3ccccc23)c(C)c1 [Compound 13225] | IC50 (PSA; [9]): 900 nM
